Active and inactive are the calls of the source. No cut-off for these calls is given here.
Legend:
Homo sapiens [1] = species: Homo sapiens; test: Selectivity ratio of compound effect for inhibition of AKT3 (unknown origin) to compound effect for inhibition of AKT2 (unknown origin)
[2] = target: MAP kinase-interacting serine/threonine-protein kinase 1 (Homo sapiens) (UniProt Q9BUB5); test: Inhibition of MNK1 (unknown origin) at 1 uM after 40 mins by scintillation counting method relative to control
[3] = target: Cyclin-dependent kinase 1 (Homo sapiens) (UniProt P06493); test: Inhibition of CDK1 (unknown origin) at 1 uM after 40 mins by scintillation counting method relative to control
[4] = target: Serine/threonine-protein kinase B-raf (Homo sapiens) (UniProt P15056); test: Inhibition of BRAF (unknown origin) at 1 uM after 40 mins by scintillation counting method relative to control
PC-3 [5] = test: Induction of apoptosis in human PC3 cells assessed as live cells at 5 uM after 48 hrs by Annexin V-FITC/propidium iodide staining based flow cytometry (reference value: 97.19%); assay type: functional
[6] = target: Ribosomal protein S6 kinase (Homo sapiens) (UniProt P51812+Q9UBS0+O75676+Q15349+O75582+P23443+Q9UK32+Q15418); test: Inhibition of p70S6K (unknown origin) at 1 uM after 40 mins by scintillation counting method relative to control; assay type: protein assay
[7] = target: RAC-alpha serine/threonine-protein kinase (Homo sapiens, UniProt P31749); test: Inhibition of AKT1 (unknown origin) at 10 nM after 40 mins by scintillation counting method relative to control
[8] = target: RAC-gamma serine/threonine-protein kinase (Homo sapiens) (UniProt Q9Y243); test: Inhibition of AKT3 (unknown origin) at 10 nM after 40 mins by scintillation counting method relative to control
PC-3 [9] = test: Induction of apoptosis in human PC3 cells assessed as late apoptotic cells at 5 uM after 48 hrs by Annexin V-FITC/propidium iodide staining based flow cytometry (reference value: 0.27%); assay type: functional
[10] = target: RAF proto-oncogene serine/threonine-protein kinase (Homo sapiens) (UniProt P04049); test: Inhibition of RAF1 (unknown origin) at 1 uM after 40 mins by scintillation counting method relative to control
PC-3 [11] = test: Induction of apoptosis in human PC3 cells assessed as necrotic cells at 5 uM after 48 hrs by Annexin V-FITC/propidium iodide staining based flow cytometry (reference value: 1.48%); assay type: functional
Homo sapiens [12] = species: Homo sapiens; test: Inhibition of PKA (unknown origin) at 1 uM after 40 mins by scintillation counting method relative to control
[13] = target: T1, Aurora kinase A (Homo sapiens) (UniProt O14965); test: Inhibition of Aurora A (unknown origin) at 1 uM after 40 mins by scintillation counting method relative to control
T1 sequence (whole entry): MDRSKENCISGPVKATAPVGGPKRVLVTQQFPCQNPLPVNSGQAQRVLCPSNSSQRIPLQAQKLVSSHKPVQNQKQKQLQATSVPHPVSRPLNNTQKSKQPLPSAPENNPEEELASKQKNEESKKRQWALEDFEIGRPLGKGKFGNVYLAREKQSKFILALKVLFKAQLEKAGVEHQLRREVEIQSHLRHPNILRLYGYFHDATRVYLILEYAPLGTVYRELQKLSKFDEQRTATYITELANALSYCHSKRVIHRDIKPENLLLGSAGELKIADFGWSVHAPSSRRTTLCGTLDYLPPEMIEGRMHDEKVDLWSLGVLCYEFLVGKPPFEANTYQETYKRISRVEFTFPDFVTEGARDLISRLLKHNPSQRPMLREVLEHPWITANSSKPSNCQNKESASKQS

PC-3 [14] = test: Induction of apoptosis in human PC3 cells assessed as live cells at 10 uM after 48 hrs by Annexin V-FITC/propidium iodide staining based flow cytometry (reference value: 97.19%); assay type: functional
Homo sapiens [15] = species: Homo sapiens; test: Selectivity ratio of compound effect for inhibition of AKT1 (unknown origin) to compound effect for inhibition of AKT2 (unknown origin)
in vitro = test: in vitro; design: dose or concentration left out as unconfirmed; settings: human, liver microsomes
Description: Half life in human liver microsomes at 10 mM preincubated for 10 mins followed by NADPH addition by LC-MS analysis

[16] = target: RAC-beta serine/threonine-protein kinase (Homo sapiens) (UniProt P31751); test: Inhibition of AKT2 (unknown origin) at 10 nM after 40 mins by scintillation counting method relative to control
PC-3 [17] = test: Induction of apoptosis in human PC3 cells assessed as live cells at 1 uM after 48 hrs by Annexin V-FITC/propidium iodide staining based flow cytometry (reference value: 97.19%); assay type: functional

Sequence of RAC-beta serine/threonine-protein kinase (Homo sapiens) (P31751 whole entry): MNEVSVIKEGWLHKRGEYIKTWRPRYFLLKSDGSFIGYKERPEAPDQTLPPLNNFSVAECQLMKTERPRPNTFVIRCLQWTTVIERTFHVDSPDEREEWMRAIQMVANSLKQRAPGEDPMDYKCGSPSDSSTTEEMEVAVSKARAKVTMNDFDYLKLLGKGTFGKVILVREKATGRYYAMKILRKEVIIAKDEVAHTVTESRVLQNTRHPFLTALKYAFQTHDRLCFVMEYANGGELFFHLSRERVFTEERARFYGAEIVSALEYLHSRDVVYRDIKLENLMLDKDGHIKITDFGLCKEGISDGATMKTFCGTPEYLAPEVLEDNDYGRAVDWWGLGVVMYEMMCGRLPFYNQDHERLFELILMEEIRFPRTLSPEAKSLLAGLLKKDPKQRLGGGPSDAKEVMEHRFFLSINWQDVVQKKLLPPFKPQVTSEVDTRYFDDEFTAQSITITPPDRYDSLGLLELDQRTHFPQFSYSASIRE
Sequence of Serine/threonine-protein kinase B-raf (Homo sapiens) (P15056 whole entry): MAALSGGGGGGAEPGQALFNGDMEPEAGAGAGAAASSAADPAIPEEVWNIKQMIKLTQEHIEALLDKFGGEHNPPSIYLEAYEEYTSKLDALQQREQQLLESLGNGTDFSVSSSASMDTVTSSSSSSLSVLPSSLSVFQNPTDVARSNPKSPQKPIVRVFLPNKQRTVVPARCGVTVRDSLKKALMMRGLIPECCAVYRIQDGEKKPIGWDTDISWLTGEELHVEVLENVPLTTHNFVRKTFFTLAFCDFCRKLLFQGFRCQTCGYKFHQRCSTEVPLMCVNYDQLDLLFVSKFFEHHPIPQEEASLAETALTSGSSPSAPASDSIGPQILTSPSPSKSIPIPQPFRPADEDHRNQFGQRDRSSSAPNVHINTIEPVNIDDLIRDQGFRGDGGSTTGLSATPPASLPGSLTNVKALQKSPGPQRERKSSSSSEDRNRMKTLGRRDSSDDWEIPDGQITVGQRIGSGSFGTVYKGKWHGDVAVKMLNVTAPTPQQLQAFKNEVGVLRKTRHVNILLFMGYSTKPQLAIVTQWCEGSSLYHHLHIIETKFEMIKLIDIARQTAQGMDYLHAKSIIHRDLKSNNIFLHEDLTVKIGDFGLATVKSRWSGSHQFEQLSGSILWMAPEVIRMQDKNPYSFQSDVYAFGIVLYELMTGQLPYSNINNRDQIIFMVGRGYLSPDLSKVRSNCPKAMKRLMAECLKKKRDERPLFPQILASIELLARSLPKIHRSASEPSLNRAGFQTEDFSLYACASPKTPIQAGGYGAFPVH
Sequence of RAC-gamma serine/threonine-protein kinase (Homo sapiens) (Q9Y243 whole entry): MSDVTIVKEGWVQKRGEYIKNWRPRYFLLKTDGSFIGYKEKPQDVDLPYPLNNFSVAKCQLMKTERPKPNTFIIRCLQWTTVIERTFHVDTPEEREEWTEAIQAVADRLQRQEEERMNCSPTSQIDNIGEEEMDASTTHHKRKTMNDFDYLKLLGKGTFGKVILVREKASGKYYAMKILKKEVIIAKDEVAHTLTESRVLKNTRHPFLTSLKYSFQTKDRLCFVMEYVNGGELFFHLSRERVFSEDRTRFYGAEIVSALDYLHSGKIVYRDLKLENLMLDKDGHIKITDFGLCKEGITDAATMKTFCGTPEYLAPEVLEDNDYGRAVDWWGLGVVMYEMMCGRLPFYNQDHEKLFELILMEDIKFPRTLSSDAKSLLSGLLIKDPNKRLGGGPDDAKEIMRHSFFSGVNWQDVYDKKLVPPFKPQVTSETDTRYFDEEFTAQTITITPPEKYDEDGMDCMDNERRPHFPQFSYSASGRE
Sequence of MAP kinase-interacting serine/threonine-protein kinase 1 (Homo sapiens) (Q9BUB5 whole entry, looked up): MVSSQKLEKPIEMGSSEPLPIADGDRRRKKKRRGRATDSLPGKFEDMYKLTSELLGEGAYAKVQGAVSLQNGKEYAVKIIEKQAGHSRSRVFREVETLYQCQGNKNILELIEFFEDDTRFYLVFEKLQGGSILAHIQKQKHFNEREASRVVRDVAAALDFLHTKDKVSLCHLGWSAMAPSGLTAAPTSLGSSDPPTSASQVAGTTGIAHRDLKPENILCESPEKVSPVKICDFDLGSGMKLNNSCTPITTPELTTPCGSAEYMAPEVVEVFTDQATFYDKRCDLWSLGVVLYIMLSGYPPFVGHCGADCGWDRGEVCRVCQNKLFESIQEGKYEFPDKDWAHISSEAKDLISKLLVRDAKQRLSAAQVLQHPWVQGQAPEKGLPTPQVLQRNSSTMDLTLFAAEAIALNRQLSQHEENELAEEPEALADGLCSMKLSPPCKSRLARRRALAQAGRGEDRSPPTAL
Sequence of RAC-alpha serine/threonine-protein kinase (P31749 whole entry): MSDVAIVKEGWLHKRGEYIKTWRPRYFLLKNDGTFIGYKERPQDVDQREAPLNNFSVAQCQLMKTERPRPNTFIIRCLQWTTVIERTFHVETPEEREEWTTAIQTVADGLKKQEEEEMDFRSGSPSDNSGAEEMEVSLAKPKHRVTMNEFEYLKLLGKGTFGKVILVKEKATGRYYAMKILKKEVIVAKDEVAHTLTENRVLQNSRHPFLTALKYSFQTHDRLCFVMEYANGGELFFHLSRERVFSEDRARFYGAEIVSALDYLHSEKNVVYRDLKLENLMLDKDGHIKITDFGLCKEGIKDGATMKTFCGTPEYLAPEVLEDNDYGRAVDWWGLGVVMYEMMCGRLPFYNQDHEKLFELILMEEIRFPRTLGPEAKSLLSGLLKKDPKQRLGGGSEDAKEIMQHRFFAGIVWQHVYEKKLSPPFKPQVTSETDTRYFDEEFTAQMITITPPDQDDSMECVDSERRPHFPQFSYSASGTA
Sequence of Cyclin-dependent kinase 1 (Homo sapiens) (P06493 whole entry, looked up): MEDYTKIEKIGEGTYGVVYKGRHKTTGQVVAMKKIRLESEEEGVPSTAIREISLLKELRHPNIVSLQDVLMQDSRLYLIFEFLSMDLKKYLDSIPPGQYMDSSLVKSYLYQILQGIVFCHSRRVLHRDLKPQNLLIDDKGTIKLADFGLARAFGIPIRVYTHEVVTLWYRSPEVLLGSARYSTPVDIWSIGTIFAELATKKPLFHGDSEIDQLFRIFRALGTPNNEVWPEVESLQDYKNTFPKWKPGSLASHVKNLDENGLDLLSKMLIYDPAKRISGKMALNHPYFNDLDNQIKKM
Sequence of RAF proto-oncogene serine/threonine-protein kinase (Homo sapiens) (P04049 whole entry): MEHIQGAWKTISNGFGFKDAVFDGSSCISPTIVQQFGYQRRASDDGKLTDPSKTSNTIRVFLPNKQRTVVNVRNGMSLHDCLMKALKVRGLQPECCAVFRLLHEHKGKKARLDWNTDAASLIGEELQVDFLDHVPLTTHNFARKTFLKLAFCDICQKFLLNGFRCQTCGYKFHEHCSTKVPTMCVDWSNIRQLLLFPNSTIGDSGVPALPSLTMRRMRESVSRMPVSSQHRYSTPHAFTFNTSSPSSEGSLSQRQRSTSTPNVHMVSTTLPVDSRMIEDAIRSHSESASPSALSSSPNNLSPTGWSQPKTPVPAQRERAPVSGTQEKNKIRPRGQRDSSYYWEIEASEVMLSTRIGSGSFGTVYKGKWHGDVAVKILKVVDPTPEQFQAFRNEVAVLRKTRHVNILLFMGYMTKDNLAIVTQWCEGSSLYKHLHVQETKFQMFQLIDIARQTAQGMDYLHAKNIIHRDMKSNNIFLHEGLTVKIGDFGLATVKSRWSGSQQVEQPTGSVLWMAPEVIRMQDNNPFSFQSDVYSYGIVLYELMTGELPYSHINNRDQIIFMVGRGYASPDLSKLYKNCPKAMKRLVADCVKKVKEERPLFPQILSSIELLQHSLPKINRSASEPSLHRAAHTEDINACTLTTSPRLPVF

O=C(N1CCN(c2ncnc3[nH]nc(Cl)c23)CC1)C1(c2ccc(Cl)c(Cl)c2)CCNCC1
Selectivity ratio (Homo sapiens [1]): > 2
inhibition [2]: 47%
inhibition [3]: inactive
inhibition [4]: inactive
Activity (PC-3 [5]): 88.11%
inhibition [6]: 99%
inhibition [7]: 82%
inhibition [8]: 93%
Activity (PC-3 [9]): 6.2%
inhibition [10]: inactive
Activity (PC-3 [11]): 1.76%
inhibition (Homo sapiens [12]): 99%
inhibition [13]: 64%
Activity (PC-3 [14]): 68.92%
Selectivity ratio (Homo sapiens [15]): > 2
half-life (in vitro): > 2.42 h
inhibition [16]: 38%
Activity (PC-3 [17]): 90.48%

— ChEMBL document CHEMBL4257535, “Design, synthesis and biological evaluation of AKT inhibitors bearing a piperidin-4-yl appendant” (Medchemcomm, 2018)
